pIC50: −log10 of the molar value.
Target: T1, N-acylethanolamine-hydrolyzing acid amidase (Homo sapiens, UniProt Q02083)
T1 sequence (Q02083 whole entry): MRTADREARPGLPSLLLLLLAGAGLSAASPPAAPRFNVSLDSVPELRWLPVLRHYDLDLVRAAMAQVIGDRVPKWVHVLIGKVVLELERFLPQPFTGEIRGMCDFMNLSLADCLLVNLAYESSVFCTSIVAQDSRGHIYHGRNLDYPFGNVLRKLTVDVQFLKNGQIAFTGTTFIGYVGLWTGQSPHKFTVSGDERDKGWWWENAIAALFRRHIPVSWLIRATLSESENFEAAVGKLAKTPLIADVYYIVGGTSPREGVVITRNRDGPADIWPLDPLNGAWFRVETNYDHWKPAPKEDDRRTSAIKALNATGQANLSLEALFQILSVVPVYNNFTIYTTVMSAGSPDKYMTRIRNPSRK
Test: ChEBML_1558887
Description: Inhibition of human NAAA expressed in HEK293 cells preincubated for 10 mins followed by N-(4-methyl-2-oxo-chromen-7-yl)-hexadecanamide substrate addition for 30 mins by microplate reader analysis

pIC50: 6.28
SMILES: COc1ccc(CCCCOC(=O)N[C@H]2CNC2=O)cc1

— BindingDB's records for doi:10.1016/j.ejmech.2016.01.046 (Italian Institute of Technology, 2016)
